From patent publication US20210255193A1, “LYSINE REACTIVE PROBES AND USES THEREOF” (The Scripps Research Institute, priority 2017, published 2021)

Target: T1, ERO1L ERO1-like protein alpha (Homo sapiens, UniProt Q96HE7)
T1 construct: isoTOP-ABPP experiments performed in cell lysates (in vitro); endogenous in cells; host or cells: soluble proteome of human cancer cell lines (MDA-MB-231; Ramos and Jurkat also prepared)
T1 sequence (Q96HE7 24-468): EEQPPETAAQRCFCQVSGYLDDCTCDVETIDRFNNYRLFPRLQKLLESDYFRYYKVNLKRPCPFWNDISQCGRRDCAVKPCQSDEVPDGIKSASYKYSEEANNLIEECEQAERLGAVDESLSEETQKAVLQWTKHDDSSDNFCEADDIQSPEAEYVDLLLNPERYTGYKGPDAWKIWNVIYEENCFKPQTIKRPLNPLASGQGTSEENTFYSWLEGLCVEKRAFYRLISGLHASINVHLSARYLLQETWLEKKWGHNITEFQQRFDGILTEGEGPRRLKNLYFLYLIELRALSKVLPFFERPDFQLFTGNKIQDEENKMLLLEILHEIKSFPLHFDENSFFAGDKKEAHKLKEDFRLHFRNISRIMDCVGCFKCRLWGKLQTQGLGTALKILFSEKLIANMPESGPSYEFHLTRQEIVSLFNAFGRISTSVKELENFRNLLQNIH
Experiment: competitive isoTOP-ABPP
Assay type: binding
Conditions: for isoTOP-ABPP ratio, lysine Q96HE7_K413: possible other lysine Q86YB8_K412; for R value (DMSO/fragment) for probe 1 labeling: Q96HE7_K413; for R value (DMSO/fragment) for probe 1 labeling / isoTOP-ABPP reactivity ratio at lysine Q96HE7_K413 / isoTOP-ABPP ratio (R) at liganded lysine Q96HE7_K413: 50 uM, in vitro; for R value (DMSO/fragment) for probe 1 labeling / isoTOP-ABPP reactivity ratio at lysine Q96HE7_K413: 231 sol; for isoTOP-ABPP ratio (R) at liganded lysine Q96HE7_K413: sol, 231
Outline: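 Cell lysate treated in vitro with fragments (50 μM activated esters, 100 μM guanidinylating agents) or DMSO, labelled 1 h at ambient temperature with 0.1 mM STP-alkyne, CuAAC-tagged with light/heavy TEV tags, analysed by MS. R = DMSO/compound MS1 peak-area ratio; lysines with R≥4 called liganded.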

O=C(ON1C(=O)CCC1=O)c1cc(C(F)(F)F)cc(C(F)(F)F)c1 [fragment 46, 3,5-Bis(trifluoromethyl)benzoic acid NHS ester]
isoTOP-ABPP ratio, lysine Q96HE7_K413 (50 uM_231_sol_in vitro): 6.5

O=C(CCc1cn(-c2ccccc2)nc1-c1ccccc1)Oc1c(F)c(F)c(F)c(F)c1F [fragment 19, Pentafluorophenyl 3-(1,3-diphenyl-1H-pyrazol-4-yl)propanoate]
R value (DMSO/fragment) for probe 1 labeling: 0.5

O=C(Oc1ccc([N+](=O)[O-])cc1[N+](=O)[O-])C(c1ccccc1)c1ccccc1 [fragment 30, 2,4-Dinitrophenyl 2,2-diphenylacetate]
isoTOP-ABPP reactivity ratio at lysine Q96HE7_K413: 1.2

O=C(CCc1cn(-c2ccccc2)nc1-c1ccccc1)Oc1ccc([N+](=O)[O-])cc1[N+](=O)[O-] [fragment 29, 2,4-Dinitrophenyl 3-(1,3-diphenyl-1H-pyrazol-4-yl)propanoate]
isoTOP-ABPP reactivity ratio at lysine Q96HE7_K413: 20.0

CC(=O)Oc1ccc([N+](=O)[O-])cc1[N+](=O)[O-] [fragment 43, 2,4-Dinitrophenyl acetate]
isoTOP-ABPP ratio (R) at liganded lysine Q96HE7_K413: 2.0

CC(C)(C)OC(=O)N=C(NC(=O)OC(C)(C)C)n1cccn1 [fragment 50, reference compound]
isoTOP-ABPP ratio, lysine Q96HE7_K413 (100 uM_231_sol_in vitro): 1.4

N#Cc1ccc(C(=O)Oc2ccc([N+](=O)[O-])cc2[N+](=O)[O-])cc1 [fragment 44, 2,4-Dinitrophenyl 4-cyanobenzoate]
isoTOP-ABPP ratio, lysine Q96HE7_K413 (50 uM_231_sol_in vitro): 1.9

O=C(Oc1ccc([N+](=O)[O-])cc1[N+](=O)[O-])c1ccc(-c2ccccc2)cc1 [fragment 37, 2,4-Dinitrophenyl [1,1′-biphenyl]-4-carboxylate]
isoTOP-ABPP ratio (R) at liganded lysine Q96HE7_K413: 2.4

O=C(Oc1c(F)c(F)c(F)c(F)c1F)C(c1ccccc1)c1ccccc1 [fragment 20, Pentafluorophenyl 2,2-diphenylacetate]
R value (DMSO/fragment) for probe 1 labeling: 0.9

O=C(Oc1ccc([N+](=O)[O-])cc1[N+](=O)[O-])c1ccc2ccccc2n1 [fragment 35, 2,4-Dinitrophenyl quinoline-2-carboxylate]
isoTOP-ABPP ratio (R) at liganded lysine Q96HE7_K413: 2.2

CCn1cc(C(=O)Oc2c(F)c(F)c(F)c(F)c2F)c(=O)c2ccc(C)nc21 [fragment 28, Pentafluorophenyl 1-ethyl-7-methyl-4-oxo-1,4-dihydro-1,8-naphthyridine-3-carboxylate]
isoTOP-ABPP reactivity ratio at lysine Q96HE7_K413: 1.4

O=C(Oc1c(F)c(F)c(F)c(F)c1F)c1cc(C(F)(F)F)cc(C(F)(F)F)c1 [fragment 21, Pentafluorophenyl 3,5-bis(trifluoromethyl)benzoate]
R value (DMSO/fragment) for probe 1 labeling: 1.4

CC(C)(C)OC(=O)NCCCC(=O)Oc1ccc([N+](=O)[O-])cc1[N+](=O)[O-] [fragment 41, 2,4-Dinitrophenyl 4-((tert-butoxycarbonyl)amino)butanoate]
isoTOP-ABPP ratio (R) at liganded lysine Q96HE7_K413: 1.7

Cn1cc(CC(=O)Oc2ccc([N+](=O)[O-])cc2[N+](=O)[O-])c2ccccc21 [fragment 32, 2,4-Dinitrophenyl 2-(1-methyl-1H-indol-3-yl)acetate]
isoTOP-ABPP reactivity ratio at lysine Q96HE7_K413: 20.0
